Data reported in US20250282799A1, “SUBSTITUTED PYRIDO[4,3-d]PYRIMIDINES AS KRAS MODULATORS” (Alterome Therapeutics, Inc., priority 2023, published 2025).

Test system: KRAS G12V dependent lung adenocarcinoma cell line, NCI-H441
Assay: Cellular pERK (Thr202/Tyr204) FRET/HTRF assay
Type: cell-based
Details: Homo sapiens, NCI-H441, cellular pERK (Thr202/Tyr204) HTRF, NCI-H441 cells
In short: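 Read-out is a wash-free FRET sandwich immunoassay for endogenous ERK1/2 phosphorylated on Thr202/Tyr204. Signal was measured in NCI-H441 lung adenocarcinoma cells after 1 hr compound exposure at 37 °C. IC50 values come from fitted concentration-response curves.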

Compound	IC50 [nM]
[2H]C([2H])(Oc1nc(N2CCOC[C@H]3[C@H](F)[C@H]32)c2cnc(-c3cc(N)cc4ccc(F)c(C#C)c34)cc2n1)[C@@]12CCCN1C[C@H](F)C2 [Example 261, 5-ethynyl-6-fluoro-4-(4-((1S,7S,8S)-8-fluoro-5-oxa-2-azabicyclo[5.1.0]octan-2-yl)-2-(((2R,7aS)-2-fluorotetrahydro-1H-pyrrolizin-7a(5H)-yl)methoxy-d2)pyrido[4,3-d]pyrimidin-7-yl)naphthalen-2-amine]	< 50
[2H]C([2H])(Oc1nc(N2CCOC[C@H]3[C@H](F)[C@H]32)c2cnc(-c3cc(N)cc4ccc(F)c(C#C)c34)c(Cl)c2n1)[C@@]12CCCN1C[C@H](F)C2 [Example 269, 4-(8-Chloro-4-((1S,7S,8S)-8-fluoro-5-oxa-2-azabicyclo[5.1.0]octan-2-yl)-2-(((2R,7aS)-2-fluorotetrahydro-1H-pyrrolizin-7a(5H)-yl)methoxy-d2)pyrido[4,3-d]pyrimidin-7-yl)-5-ethynyl-6-fluoronaphthalen-2-amine]	< 50
[2H]C([2H])(Oc1nc(N2CCOC[C@H]3[C@H](F)[C@H]32)c2cnc(-c3cccc4ccc(C)c(C#C)c34)c(F)c2n1)[C@@]12CCCN1C[C@H](F)C2 [Example 325, (1S,7S,8S)-2-(7-(8-ethynyl-7-methylnaphthalen-1-yl)-8-fluoro-2-(((2R,7aS)-2-fluorotetrahydro-1H-pyrrolizin-7a(5H)-yl)methoxy-d2)pyrido[4,3-d]pyrimidin-4-yl)-8-fluoro-5-oxa-2-azabicyclo[5.1.0]octane]	< 50
C#Cc1c(F)ccc2cccc(-c3ncc4c(N5CCOC[C@H]6[C@H](F)[C@H]65)nc(OC[C@]56C/C(=C\F)CN5CCC65CC5)nc4c3F)c12 [Example 375, (1S,7S,8S)-2-(7-(8-Ethynyl-7-fluoronaphthalen-1-yl)-8-fluoro-2-(((R,E)-6′-(fluoromethylene)tetrahydrospiro[cyclopropane-1,1′-pyrrolizin]-7a′(5′H)-yl)methoxy)pyrido[4,3-d]pyrimidin-4-yl)-8-fluoro-5-oxa-2-azabicyclo[5.1.0]octane]	< 50
[2H]C([2H])(F)Oc1c(F)ccc2cccc(-c3ncc4c(N5CCOC[C@H]6[C@H](F)[C@H]65)nc(OC[C@]56CC(=C)CN5CCC65CC5)nc4c3F)c12 [Example 384, (1S,7S,8S)-8-fluoro-2-(8-fluoro-7-(7-fluoro-8-(fluoromethoxy-d2)naphthalen-1-yl)-2-(((R)-6′-methylenetetrahydrospiro[cyclopropane-1,1′-pyrrolizin]-7a′(5′H)-yl)methoxy)pyrido[4,3-d]pyrimidin-4-yl)-5-oxa-2-azabicyclo[5.1.0]octane]	< 50
[2H]C([2H])(F)Oc1c(F)ccc2cc(N)cc(-c3ncc4c(N5CCOC[C@H]6[C@H](F)[C@H]65)nc(OC[C@@]56CCCN5C[C@]5(CC5(F)F)C6)nc4c3F)c12 (single isomer, unassigned) [Example 230]	< 50
C#Cc1c(F)ccc2cccc(-c3ncc4c(N5CCOC[C@H]6[C@H](F)[C@H]65)nc(OC[C@@]56CCCN5C/C(=C/F)C6)nc4c3F)c12 [Example 129, (1S,7S,8S)-2-(7-(8-Ethynyl-7-fluoronaphthalen-1-yl)-8-fluoro-2-(((S,E)-2-(fluoromethylene)tetrahydro-1H-pyrrolizin-7a(5H)-yl)methoxy)pyrido[4,3-d]pyrimidin-4-yl)-8-fluoro-5-oxa-2-azabicyclo[5.1.0]octane]	< 50
C#Cc1c(F)ccc2cc(N)cc(-c3ncc4c(N5CCOC[C@H]6[C@H](F)[C@H]65)nc(OC[C@@]56CCCN5C[C@]5(CC5(F)F)C6)nc4c3F)c12 (single isomer, unassigned) [Example 210]	< 50
[2H]C([2H])(Oc1nc(N2CCOC[C@H]3[C@H](F)[C@H]32)c2cnc(-c3cc(N)cc4ccc(F)c(C#C)c34)c(F)c2n1)[C@@]12CCCN1C[C@]1(C[C@H]1F)C2 (single isomer, unassigned) [Example 312]	< 50
[2H]C([2H])(Oc1nc(N2CCOC[C@H]3[C@H](F)[C@H]32)c2cnc(-c3cc(N)cc(C)c3C(F)(F)F)c(F)c2n1)[C@@]12CCCN1C[C@H](F)C2 [Example 168, 3-(8-fluoro-4-((1S,7S,8S)-8-fluoro-5-oxa-2-azabicyclo[5.1.0]octan-2-yl)-2-(((2R,7aS)-2-fluorotetrahydro-1H-pyrrolizin-7a(5H)-yl)methoxy-d2)pyrido[4,3-d]pyrimidin-7-yl)-5-methyl-4-(trifluoromethyl)aniline]	500 to 10000
C#Cc1c(F)ccc2cc(N)cc(-c3ncc4c(N5CCOC[C@H]6[C@H](F)[C@H]65)nc(OC[C@]56C[C@@]7(C[C@H]7F)CN5CCC65CC5)nc4c3F)c12 (single isomer, unassigned) [Example 233]	< 50
C#Cc1c(F)ccc2cc(O)cc(-c3ncc4c(N5CCCO[C@H]6C[C@H]65)nc(OC[C@@]5(C)CCCN5C)nc4c3F)c12 [Example 283, 4-(4-((1S,7R)-2-oxa-6-azabicyclo[5.1.0]octan-6-yl)-2-(((R)-1,2-dimethylpyrrolidin-2-yl)methoxy)-8-fluoropyrido[4,3-d]pyrimidin-7-yl)-5-ethynyl-6-fluoronaphthalen-2-ol]	< 50
C#Cc1c(F)ccc2cccc(-c3ncc4c(N5CCCC[C@H]6[C@H](F)[C@H]65)nc(OC[C@]56CC(=C)CN5CCC65CC5)nc4c3F)c12 [Example 423, (R)-7a′-(((7-(8-Ethynyl-7-fluoronaphthalen-1-yl)-8-fluoro-4-((1S,7R,8S)-8-fluoro-2-azabicyclo[5.1.0]octan-2-yl)pyrido[4,3-d]pyrimidin-2-yl)oxy)methyl)-6′-methylenehexahydrospiro[cyclopropane-1,1′-pyrrolizine]]	< 50
[2H]C([2H])(F)Oc1c(F)ccc2cc(N)cc(-c3ncc4c(N5CCOC[C@H]6[C@H](F)[C@H]65)nc(OC[C@]56CC(=C)CN5CCC65CC5)nc4c3F)c12 [Example 387, 6-fluoro-4-(8-fluoro-4-((1S,7S,8S)-8-fluoro-5-oxa-2-azabicyclo[5.1.0]octan-2-yl)-2-(((R)-6′-methylenetetrahydrospiro[cyclopropane-1,1′-pyrrolizin]-7a′(5′H)-yl)methoxy)pyrido[4,3-d]pyrimidin-7-yl)-5-(fluoromethoxy-d2)naphthalen-2-amine]	< 50

Same assay, conditions: Homo sapiens, NCI-H441, cellular pERK HTRF, NCI-H441 (KRAS G12V) cells

Compound	IC50 [nM]
[2H]C([2H])(Oc1nc(N2CCOC[C@H]3[C@H](F)[C@H]32)c2cnc(-c3cc(O)cc4ccc(F)c(C#C)c34)c(C)c2n1)[C@@]12CCCN1C[C@H](F)C2 [Example 445, 5-Ethynyl-6-fluoro-4-(4-((1S,7S,8S)-8-fluoro-5-oxa-2-azabicyclo[5.1.0]octan-2-yl)-2-(((2R,7aS)-2-fluorotetrahydro-1H-pyrrolizin-7a(5H)-yl)methoxy-d2)-8-methylpyrido[4,3-d]pyrimidin-7-yl)naphthalen-2-ol]	< 50

Same assay, conditions: Homo sapiens, NCI-H441, pERK HTRF, NCI-H441 cells (KRAS G12V)

Compound	IC50 [nM]
[2H]C([2H])([2H])Oc1c(F)c(F)cc2cc(N)cc(-c3ncc4c(N5CCCC[C@H]6[C@H](F)[C@H]65)nc(OC([2H])([2H])[C@@]56CCCN5C[C@H](F)C6)nc4c3F)c12 [Example 65, 6,7-Difluoro-4-(8-fluoro-4-((1S,7R,8S)-8-fluoro-2-azabicyclo[5.1.0]octan-2-yl)-2-(((2R,7aS)-2-fluorotetrahydro-1H-pyrrolizin-7a(5H)-yl)methoxy-d2)pyrido[4,3-d]pyrimidin-7-yl)-5-(methoxy-d3)naphthalen-2-amine]	< 50
[2H]C([2H])(Oc1nc(N2CCCC[C@H]3[C@H](F)[C@H]32)c2cnc(-c3cccc4ccc(F)c(OCF)c34)c(F)c2n1)[C@@]12CCCN1C[C@H](F)C2 [Example 73, 8-Fluoro-7-(7-fluoro-8-(fluoromethoxy)naphthalen-1-yl)-4-((1S,7R,8S)-8-fluoro-2-azabicyclo[5.1.0]octan-2-yl)-2-(((2R,7aS)-2-fluorotetrahydro-1H-pyrrolizin-7a(5H)-yl)methoxy-d2)pyrido[4,3-d]pyrimidine]	< 50
[2H]C([2H])([2H])Oc1c(C#N)ccc2cc(N)cc(-c3ncc4c(N5CCOC[C@H]6[C@H](F)[C@H]65)nc(OC([2H])([2H])[C@@]56CCCN5C[C@H](F)C6)nc4c3F)c12 [Example 81, 6-Amino-8-(8-fluoro-4-((1S,7S,8S)-8-fluoro-5-oxa-2-azabicyclo[5.1.0]octan-2-yl)-2-(((2R,7aS)-2-fluorotetrahydro-1H-pyrrolizin-7a(5H)-yl)methoxy-d2)pyrido[4,3-d]pyrimidin-7-yl)-1-(methoxy-d3)-2-naphthonitrile]	< 50
[2H]C([2H])(Oc1nc(N2CCCC[C@H]3[C@H](F)[C@H]32)c2cnc(-c3cc(N)cc4c(F)c(F)c(F)c(C#C)c34)c(F)c2n1)[C@@]12CCCN1C[C@H](F)C2 [Example 70, 5-Ethynyl-6,7,8-trifluoro-4-(8-fluoro-4-((1S,7R,8S)-8-fluoro-2-azabicyclo[5.1.0]octan-2-yl)-2-(((2R,7aS)-2-fluorotetrahydro-1H-pyrrolizin-7a(5H)-yl)methoxy-d2)pyrido[4,3-d]pyrimidin-7-yl)naphthalen-2-amine]	< 50

Same assay, conditions: cellular pERK HTRF, NCI-H441 (KRAS G12V) cells

Compound	IC50 [nM]
[2H]C([2H])(Oc1nc(N2CCOC[C@H]3[C@H](F)[C@H]32)c2cc(F)c(-c3cc(N)cc4ccc(F)c(C#C)c34)c(C)c2n1)[C@@]12CCCN1C[C@H](F)C2 (atropisomer, axis not shown; (aS)) [Example 435, 5-ethynyl-6-fluoro-4-((S)-6-fluoro-4-((1S,7S,8S)-8-fluoro-5-oxa-2-azabicyclo[5.1.0]octan-2-yl)-2-(((2R,7aS)-2-fluorotetrahydro-1H-pyrrolizin-7a(5H)-yl)methoxy-d2)-8-methylquinazolin-7-yl)naphthalen-2-amine]	< 50
